The numbers were not newly measured in patent US20080318886A1, “Methods of Increasing Cancer Sensitivity to Chemotherapeutic Agents Using Chimeric ISF35” (priority 2006, published 2008), which cites them from elsewhere.

The test system of this data set is CLL. The note with it: CLL patients, first line treatment.

On to `Nc1nc(F)nc2c1ncn2[C@@H]1O[C@H](CO)[C@@H](O)[C@@H]1O` [Fludaribine], for which the overall response rate is listed as approximately 70%.
